Counter-ions that a name gives are not always drawn.
Legend:
[1] = molecular target: T1, recombinant human adrenergic beta 1 receptors (Homo sapiens, UniProt P08588); assay: Adrenergic β1 selectivity assay, inhibition of [125I]-Iodocyanopindolol binding; conditions: membranes, [125I]-Iodocyanopindolol; read-out: β1 bind pIC50 (converted)
T1 construct: purchased Euroscreen
Experimental: (§1) Membranes containing recombinant human adrenergic beta 1 receptors were obtained from Euroscreen. These were diluted in Assay Buffer (50 mM HEPES, 1 mM EDTA, 120 mM NaCl, 0.1% gelatin, pH 7.4) to provide a final concentration of membranes that gave a clear window between maximum and minimum specific binding.
Assays were performed in U-bottomed 96-well polypropylene plates. […] Membranes were then added to achieve a final volume of 100 μL. The plates were incubated for 2 hours at room temperature and then filtered onto PEI coated GF/B filter plates, pre-soaked for 1 hour in Assay Buffer, using a 96-well plate Tomtec cell harvester. Five washes with 250 μL wash buffer (50 mM HEPES, 1 mM EDTA, 120 mM NaCl, pH 7.4) were performed at 4° C. to remove unbound radioactivity. The plates were dried then sealed from underneath using Packard plate sealers and MicroScint-O (50 μL) was added to each well. The plates were sealed (TopSeal A) and filter-bound radioactivity was measured with a scintillation counter (TopCount, Packard BioScience) using a 3-minute counting protocol.
(§2) Total specific binding (B0) was determined by subtracting the mean NSB from the mean maximum binding. NSB values were also subtracted from values from all other wells.

[2] = molecular target: T2, recombinant human α1D receptor (Homo sapiens, UniProt P25100); assay: Adrenergic α1D selectivity assay, inhibition of [3H]-prazosin binding; conditions: HEK293 membranes, [3H]-prazosin 0.3 nM; read-out: α1 bind pIC50 (converted)
T2 construct: expressed in transfected cells; host or cells: HEK293
T2 sequence (P25100 1-572): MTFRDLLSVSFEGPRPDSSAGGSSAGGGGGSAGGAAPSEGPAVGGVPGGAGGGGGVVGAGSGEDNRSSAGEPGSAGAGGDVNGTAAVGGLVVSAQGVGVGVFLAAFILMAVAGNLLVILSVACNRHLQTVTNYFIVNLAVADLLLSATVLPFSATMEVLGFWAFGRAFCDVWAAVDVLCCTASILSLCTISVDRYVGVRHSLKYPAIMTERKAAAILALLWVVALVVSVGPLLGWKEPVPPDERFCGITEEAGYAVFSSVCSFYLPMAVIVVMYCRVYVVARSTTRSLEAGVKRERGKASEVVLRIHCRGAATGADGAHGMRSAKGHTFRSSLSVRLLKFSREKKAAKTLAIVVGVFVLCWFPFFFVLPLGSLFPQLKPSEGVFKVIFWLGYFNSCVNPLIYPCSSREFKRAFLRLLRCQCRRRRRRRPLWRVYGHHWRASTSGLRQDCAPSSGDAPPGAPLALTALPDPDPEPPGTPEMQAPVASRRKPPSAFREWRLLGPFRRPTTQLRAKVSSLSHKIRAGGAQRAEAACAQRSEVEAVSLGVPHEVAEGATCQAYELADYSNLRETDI
Experimental: Membranes were prepared from human embryonic kidney 293 (HEK293) cells expressing recombinant human α1D receptor. These were diluted in Assay Buffer (50 mM HEPES, 1 mM EDTA, 0.1% gelatin, pH 7.4) to provide a final concentration of membranes that gave a clear window between maximum and minimum specific binding.
Assays were performed in U-bottomed 96-well polypropylene plates. 10 μL [^3H]-prazosin (0.3 nM final concentration) and 10 μL of test compound (10× final concentration) were added to each test well. For each assay plate 8 replicates were obtained for [^3H]-prazosin binding in the presence of 10 μL vehicle (10% (v/v) DMSO in Assay Buffer; defining maximum binding) or 10 μL BMY7378 (10 μM final concentration; defining non-specific binding (NSB)). Membranes were then added to achieve a final volume of 100 μL. The plates were incubated for 2 hours at room temperature and then filtered onto PEI coated GF/B filter plates, pre-soaked for 1 hour in Assay Buffer, using a 96-well plate Tomtec cell harvester. Five washes with 250 μL wash buffer (50 mM HEPES, 1 mM EDTA, pH 7.4) were performed at 4° C. to remove unbound radioactivity. The plates were dried then sealed from underneath using Packard plate sealers and MicroScint-O (50 μL) was added to each well. The plates were sealed (TopSeal A) and filter-bound radioactivity was measured with a scintillation counter (TopCount, Packard BioScience) using a 3-minute counting protocol.
as §2

Adrenergic β2 = molecular target: T3, Adrenergic β2 (Homo sapiens, UniProt P07550); assay: Alternative Adrenergic β2 Mediated cAMP Production in H292 cells (AlphaScreen cAMP detection); type: cell-based; conditions: for EC50: cAMP, test compounds incubated 60 minutes, 300 μM rolipram, read-out: β2 pEC50 (converted); for β2 Int Act: fraction relative to the maximum activity determined for formoterol, 60 minutes incubation
T3 construct: endogenous in cells; host or cells: H292 cells
Experimental: H292 cells were grown in 225 cm2 flasks incubator at 37° C., 5% CO2 in RPMI medium containing, 10% (v/v) FBS (foetal bovine serum) and 2 mM L-glutamine.
Adherent H292 cells were removed from tissue culture flasks by treatment with Accutase™ cell detachment solution for 15 minutes. Flasks were incubated for 15 minutes in a humidified incubator at 37° C., 5% CO2. Detached cells were re-suspended in RPMI media (containing 10% (v/v) FBS and 2 mM L-glutamine) at 0.05×10^6 cells per mL. 5000 cells in 100 μL were added to each well of a tissue-culture-treated 96-well plate and the cells incubated overnight in a humidified incubator at 37° C., 5% CO2. The culture media was removed and cells were washed twice with 100 μL assay buffer and replaced with 50 μL assay buffer (HBSS solution containing 10 mM HEPES pH7.4 and 5 mM glucose). […] Cells were incubated with rolipram for 10 minutes after which time test compounds were added and the cells were incubated for 60 minutes at room temperature. […] The reaction was stopped by removing supernatants, washing once with 100 μL assay buffer and replacing with 50 μL lysis buffer. The cell monolayer was frozen at −80° C. for 30 minutes (or overnight).
The concentration of cAMP (cyclic adenosine monophosphate) in the cell lysate was determined using AlphaScreen™ methodology. The frozen cell plate was thawed for 20 minutes on a plate shaker then 10 μL of the cell lysate was transferred to a 96-well white plate. 40 μL of mixed AlphaScreen™ detection beads pre-incubated with biotinylated cAMP, was added to each well and the plate incubated at room temperature for 10 hours in the dark. The AlphaScreen™ signal was measured using an EnVision spectrophotometer (Perkin-Elmer Inc.) with the recommended manufacturer's settings. cAMP concentrations were determined by reference to a calibration curve determined in the same experiment using standard cAMP concentrations. Concentration response curves for agonists were constructed and data was fitted to a four parameter logistic equation to determine both the pEC50 and Intrinsic Activity.

[3] = molecular target: T4, recombinant human Dopamine Subtype D2s receptors (Homo sapiens, UniProt P14416); assay: Dopamine D2 selectivity assay, inhibition of [3H]-spiperone binding; conditions: membranes, [3H]-spiperone 0.16 nM; read-out: D2 bind pIC50 (converted)
T4 construct: purchased Perkin Elmer
Experimental: as §1, with “human Dopamine Subtype D2s” for “human adrenergic beta 1”, “from Perkin Elmer.” for “from Euroscreen.”, “([…]” for “(50 mM”
Assays were performed in U-bottomed 96-well polypropylene plates. […] For each assay plate 8 replicates were obtained for [^3H]-spiperone binding in the presence of 30 μL vehicle (10% (v/v) DMSO in Assay Buffer; defining maximum binding) or 30 μL Haloperidol (10 μM final concentration; defining non-specific binding (NSB)). Membranes were then added to achieve a final volume of 300 μL. The plates were incubated for 2 hours at room temperature and then filtered onto PEI coated GF/B filter plates, pre-soaked for 1 hour in Assay Buffer, using a 96-well plate Tomtec cell harvester. Five washes with 250 μL wash buffer (50 mM HEPES, 1 mM EDTA, 120 mM NaCl, pH 7.4) were performed at 4° C. to remove unbound radioactivity. The plates were dried then sealed from underneath using Packard plate sealers and MicroScint-O (50 μL) was added to each well. The plates were sealed (TopSeal A) and filter-bound radioactivity was measured with a scintillation counter (TopCount, Packard BioScience) using a 3-minute counting protocol. Total specific binding (B0) was determined by subtracting the mean NSB from the mean maximum binding. NSB values were also subtracted from values from all other wells.

T1 sequence (P08588 whole entry): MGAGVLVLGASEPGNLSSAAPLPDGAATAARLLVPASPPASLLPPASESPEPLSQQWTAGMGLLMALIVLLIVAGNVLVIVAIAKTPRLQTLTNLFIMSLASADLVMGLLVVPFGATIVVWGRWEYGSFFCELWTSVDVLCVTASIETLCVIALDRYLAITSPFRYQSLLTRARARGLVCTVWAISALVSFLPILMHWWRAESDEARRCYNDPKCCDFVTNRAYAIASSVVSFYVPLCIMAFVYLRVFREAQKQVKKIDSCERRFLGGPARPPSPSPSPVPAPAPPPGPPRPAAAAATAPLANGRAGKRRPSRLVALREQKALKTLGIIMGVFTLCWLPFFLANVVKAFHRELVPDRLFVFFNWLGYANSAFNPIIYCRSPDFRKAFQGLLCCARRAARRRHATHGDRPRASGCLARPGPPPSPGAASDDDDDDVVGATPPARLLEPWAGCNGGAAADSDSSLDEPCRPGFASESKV
T3 sequence (P07550 whole entry): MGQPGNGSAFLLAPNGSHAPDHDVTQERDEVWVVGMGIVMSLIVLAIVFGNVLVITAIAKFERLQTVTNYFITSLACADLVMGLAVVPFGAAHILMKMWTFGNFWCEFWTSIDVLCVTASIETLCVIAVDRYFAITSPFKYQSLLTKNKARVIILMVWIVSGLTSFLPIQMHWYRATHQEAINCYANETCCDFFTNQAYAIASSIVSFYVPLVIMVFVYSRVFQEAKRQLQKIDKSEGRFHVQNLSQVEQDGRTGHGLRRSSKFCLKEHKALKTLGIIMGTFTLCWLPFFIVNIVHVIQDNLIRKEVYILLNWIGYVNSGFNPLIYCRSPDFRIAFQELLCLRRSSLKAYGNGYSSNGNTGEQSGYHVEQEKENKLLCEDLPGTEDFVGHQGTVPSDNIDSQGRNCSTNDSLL
T4 sequence (P14416 1-414 isoform P14416-2): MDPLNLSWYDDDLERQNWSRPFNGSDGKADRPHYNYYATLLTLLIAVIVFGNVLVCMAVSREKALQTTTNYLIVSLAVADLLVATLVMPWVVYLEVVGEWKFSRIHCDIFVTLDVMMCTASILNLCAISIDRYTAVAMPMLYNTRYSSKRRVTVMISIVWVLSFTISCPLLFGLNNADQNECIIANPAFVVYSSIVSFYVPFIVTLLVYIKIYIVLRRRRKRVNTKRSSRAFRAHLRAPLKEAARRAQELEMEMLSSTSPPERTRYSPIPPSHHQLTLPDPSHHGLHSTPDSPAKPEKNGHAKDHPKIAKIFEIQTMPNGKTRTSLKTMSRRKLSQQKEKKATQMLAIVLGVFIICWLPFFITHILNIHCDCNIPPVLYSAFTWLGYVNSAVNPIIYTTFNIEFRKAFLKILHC

| SMILES | IC50 [1] | IC50 [2] | EC50 (Adrenergic β2) | β2 Int Act (Adrenergic β2) | IC50 [3] |
| --- | --- | --- | --- | --- | --- |
| O=c1[nH]c2c(O)ccc([C@@H](O)CNCCSCCCNCCc3cccc(C(F)(F)F)c3)c2s1 [Example 18, 4-Hydroxy-7-{(1R)-1-hydroxy-2-[(2-{[3-({2-[3-(trifluoromethyl)phenyl]ethyl}amino)propyl]thio}ethyl)amino]ethyl}-1,3-benzothiazol-2(3H)-one] | 0.1 µM | 0.251 µM | 0.00316 µM | 0.8 |  |
| O=c1[nH]c2c(O)ccc([C@@H](O)CNCCCSCCNCCc3cccc(Cl)c3)c2s1 [Example 33, 7-[(1R)-2-({3-[(2-{[2-(3-Chlorophenyl)ethyl]amino}ethyl)thio]propyl}amino)-1-hydroxyethyl]-4-hydroxy-1,3-benzothiazol-2(3H)-one] |  | 0.0398 µM |  | 1.1 | 1 µM |
| O=c1[nH]c2c(O)ccc([C@@H](O)CNCCCOCCOCCc3ccccc3)c2s1 [Example 3, 4-Hydroxy-7-[(1R)-1-hydroxy-2-({3-[2-(2-phenylethoxy)ethoxy]propyl}amino)ethyl]-1,3-benzothiazol-2(3H)-one trifluoroacetate] |  |  | 0.000126 µM | 0.9 |  |
| Cl.O=c1[nH]c2c(O)ccc([C@@H](O)CNCCCSCCCOCCc3ccccc3)c2s1 [Example 6, 4-Hydroxy-7-{(1R)-1-hydroxy-2-[(3-{[3-(2-phenylethoxy)propyl]thio}propyl)amino]ethyl}-1,3-benzothiazol-2(3H)-one hydrochloride] | 0.00398 µM |  |  | 0.9 |  |
| O=c1[nH]c2c(O)ccc([C@@H](O)CNCCSCCCNCCc3ccccc3Cl)c2s1 [Example 20, 7-[(1R)-2-({2-[(3-{[2-(2-Chlorophenyl)ethyl]amino}propyl)thio]ethyl}amino)-1-hydroxyethyl]-4-hydroxy-1,3-benzothiazol-2(3H)-one] |  | 0.0251 µM |  | 0.8 |  |
| Cl.O=c1[nH]c2c(O)ccc([C@@H](O)CNCCCSCCOCCc3ccccc3)c2s1 [Example 9, 4-Hydroxy-7-{(1R)-1-hydroxy-2-[(3-{[2-(2-phenylethoxy)ethyl]thio}-propyl)amino]ethyl}-1,3-benzothiazol-2(3H)-one hydrochloride] |  |  |  | 1 |  |
| Cl.O=c1[nH]c2c(O)ccc([C@@H](O)CNCCSCCCNCCc3ccccc3)c2s1 [Example 11, 4-Hydroxy-7-((1R)-1-hydroxy-2-{[2-({3-[(2-phenylethyl)amino]propyl}thio)ethyl]amino}ethyl)-1,3-benzothiazol-2(3H)-one hydrochloride] | 0.251 µM | 0.126 µM |  | 0.9 |  |
| CCOc1ccc(CCNCCCSCCNC[C@H](O)c2ccc(O)c3[nH]c(=O)sc23)cc1 [Example 16, 7-[(1R)-2-({2-[(3-{[2-(4-Ethoxyphenyl)ethyl]amino}propyl)thio]ethyl}amino)-1-hydroxyethyl]-4-hydroxy-1,3-benzothiazol-2(3H)-one] |  | 1.58 µM |  | 0.7 |  |
| O=c1[nH]c2c(O)ccc([C@@H](O)CNCCOCCCNCCc3cccc(Cl)c3)c2s1 [Example 36, 7-((1R)-2-{[2-(3-{[2-(3-Chlorophenyl)ethyl]amino}propoxy)ethyl]amino}-1-hydroxyethyl)-4-hydroxy-1,3-benzothiazol-2(3H)-one] | 0.1 µM |  |  | 1 |  |
| O=c1[nH]c2c(O)ccc([C@@H](O)CNCCCSCCOCCc3cccc4ccccc34)c2s1 [Example 1, 4-Hydroxy-7-((1R)-1-hydroxy-2-{[3-({2-[2-(1-naphthyl)ethoxy]ethyl}thio)propyl]-amino}ethyl)-1,3-benzothiazol-2(3H)-one trifluoroacetate] |  |  | 0.0001 µM | 1 | 0.2 µM |
| O=c1[nH]c2c(O)ccc([C@@H](O)CNCCSCCCNCCc3cccc(Cl)c3)c2s1 [Example 40, 7-[(1R)-2-({2-[(3-{[2-(3-Chlorophenyl)ethyl]amino}propyl)thio]ethyl}amino)-1-hydroxyethyl]-4-hydroxy-1,3-benzothiazol-2(3H)-one dihydrochloride] |  |  | 0.001 µM | 0.8 |  |
| O=c1[nH]c2c(O)ccc([C@@H](O)CNCCCOCCOCCc3cccc4ccccc34)c2s1 [Example 7, 4-Hydroxy-7-{(1R)-1-hydroxy-2-[(3-{2-[2-(1-naphthyl)ethoxy]ethoxy}propyl)amino]ethyl}-1,3-benzothiazol-2(3H)-one] |  | 0.631 µM |  | 1.1 |  |
| CCc1ccc(CCNCCCSCCNC[C@H](O)c2ccc(O)c3[nH]c(=O)sc23)cc1 [Example 14, 7-[(1R)-2-({2-[(3-{[2-(4-Ethylphenyl)ethyl]amino}propyl)thio]ethyl}amino)-1-hydroxyethyl]-4-hydroxy-1,3-benzothiazol-2(3H)-one] | 0.0501 µM | 0.1 µM | 0.00398 µM | 0.9 |  |

From patent publication US20090221653A1, “7-(2-amino-1-hydroxy-ethyl)-4-hydroxybenzothiazol-2(3H)-one-derivatives as beta2 adrenoreceptor agonists” (AstraZeneca AB, priority 2005, published 2009)
